According to patent US12582599B2, “Methods for treatment of bladder cancer with gemcitabine” (TARIS Biomedical LLC, priority 2014, dated 2026):

Legend:
[1] = Gemcitabine release systems vs intravesical instillation in hounds; type: in vivo, large mixed breed hounds; details: intravesical instillation mimicking standard clinical doses
Procedure: Two gemcitabine release systems (devices as shown in FIGS. 1A-1B) designed to release therapeutic levels (4 mg/day and 40 mg/day) into the urine were screened. The devices used either laser-drilled orifices or punched orifices for release of the gemcitabine. The systems tested were compared to intravesical instillations which were designed to mimic the standard intravesical doses used clinically. The test animals were large mixed breed hounds, with N=3 for each group.
In vivo, one system yielded very low urine and tissue concentrations but was well tolerated by the test animal. The other system produced target urine concentration levels but was poorly tolerated by the test animal. Urine profiles were also variable and the duration of drug release was unacceptably short.

[2] = 14C gemcitabine bladder perfusion vs IV bolus, blood/urine/tissue content; type: in vivo, male Sprague Dawley rats
Procedure: A study was conducted on male Sprague Dawley rats administering ^14C gemcitabine by intra-urinary bladder cannula, over a 6- or 24-hour continuous perfusion, or by a single IV bolus. The 6- and 24-hour continuous perfusions perfused 6.9 and 26.6 mg, respectively, of gemcitabine into the bladder. The single IV bolus included 5.0 mg of gemcitabine. Blood (FIG. 8), urine, and tissue samples (e.g., bladder, prostate) (FIGS. 7 and 9) were collected and analyzed for gemcitabine content. The results are illustrated in FIGS. 7-9. […] The gemcitabine levels observed for each of the bladder epithelium, lamina propria, muscularis, and adventitia are shown in FIG. 14, which also illustrates a target effective range for the gemcitabine tissue concentration.

[3] = minipig, in vivo
Procedure: Varying concentrations of gemcitabine were perfused into pigs for 7 days, N=5 (2 males and 3 females per treatment group). The perfusion animals were dosed at concentrations selected to bracket the target doses for bladder cancer in humans. For comparison, a gemcitabine releasing device (as shown in FIGS. 1A-1B) with large bore end caps (restraining plugs with a large aperture therethrough for drug release) with an intermediate in vitro release rate was deployed in a separate group of animals.

SMILES: Nc1ccn([C@@H]2O[C@H](CO)[C@@H](O)C2(F)F)c(=O)n1 [gemcitabine, 2′,2′-difluorodeoxycytidine]
- urothelial lesions [1]: significant urothelial lesions
- gemcitabine levels in bladder tissue ([2]; 6- or 24-hour continuous bladder perfusion, sustained urine concentrations): at or exceed therapeutic concentrations
- concentration of gemcitabine in the bladder ([2]; 24 hours after a clinically relevant IV dose, compared with perfusion): significantly lower concentration
- plasma/systemic exposure ([2]; continuous delivery by intravesical administration): without significant plasma/systemic exposure
- tolerability [3]: tolerated gemcitabine well
